The values that follow come from patent US11440922B2, “Heterocyclylmethylidene derivatives and their use as modulators of mGluR5 receptors” (Recordati Industria Chimica e Farmaceutica S.p.A., priority 2017, dated 2022).

The target in one assay is human mGluR5 receptor (Homo sapiens (Human), UniProt P41594). Description: Radioligand binding assay at cloned human mGluR5 receptor subtype ([3H]MPEP). Particulars: 4 nM [3H]MPEP, CHO T-REx h-mGluR5 cells, 60 min at 25° C.; read-out: mGlu5 Ki. An excerpt:
(§1) Cell lines stably transfected were generated using inducible expression vectors encoding human mGlu5 receptor using the Tetracycline-Regulated Expression system (T-REx™ system, Invitrogen, Life Technologies). Human mGluR5 open reading frame (ORF), comprehensive of the stop codon, were cloned into the pcDNA4/TO/myc-His™ A vector, carrying the TetO2. The insertion site was HindIII-PstI for mGluR5 receptors. The obtained constructs were then transfected into the T-REx CHO™ cell line using the FuGENE protocol (Roche); the CHO T-REx™ cell line stably expresses the Tet repressor (from the pcDNA6/TR plasmid) under the selection of blasticidin, 10 μg/ml. Stable clones were obtained selecting with zeocin 1 mg/ml and maintaining in ULTRA CHO medium (LONZA) supplemented with dialyzed FBS, zeocin, blasticidine, at 37° C., in an atmosphere of 5% CO2. The expression of h-mGluR5 receptors was de-repressed with 1 μg/ml tetracycline for 18 h before binding experimentation, while the expression of h-mGluR5 receptors was derepressed respectively with 3 ng/ml and 10 ng/ml tetracycline for 18 h before calcium fluorescence experimentation.
Radioligand Binding Assay at Cloned Human mGluR5 Receptor Subtype
Affinity at transmembrane glutamate metabotropic cloned human mGluR5 receptor was evaluated according to the methods of Anderson (Anderson et al., J Pharmacol. Exp. Ther., (2002), Vol. 303(3), pp. 1044-51), with some modifications. Human cloned mGluR5 was obtained by re-suspending CHO T-REx h-mGluR5 cells (50 μg/well) in 20 mM HEPES, 2 mM MgCl2, 2 mM CaCl2, pH 7.4, that then were incubated in a final volume of 1 ml for 60 min at 25° C. with 4 nM [^3H]MPEP in the absence or presence of competing drugs. Non-specific binding was determined in the presence of 10 μM MPEP. The incubation was stopped by addition of cold Tris buffer pH 7.4 and rapid filtration through 0.2% polyethyleneimine pretreated Filtermat 1204-401 (Perkin Elmer) filters. The filters were then washed with cold buffer and the radioactivity retained on the filters was counted by liquid scintillation spectrometry (Betaplate 1204 BS-Wallac).
(§2) The inhibition curves of the tested compounds at cloned mGluR5 subtypes were determined by nonlinear regression analysis using software Prism 4.0 (Graphpad, San Diego, Calif.). The IC50 values and pseudo-Hill slope coefficients were estimated by the program. The values for the inhibition constant, Ki, were calculated according to the equation Ki=IC50/(1+[L]/Kd), where [L] is the concentration of radioligand and Kd is the equilibrium dissociation constant of the radioligand-receptor complex (Cheng et al., Biochem. Pharmacol. (1973), Vol. 22, pp. 3099-3108).

In a further assay the target is human mGlu5 receptor (Homo sapiens (Human), UniProt P41594). Briefly: Calcium fluorescence measurements, antagonist potency (negative allosteric modulator activity). Format: cell-based. Particulars: EC80 of quisqualate as agonist, compounds applied 10 minutes before agonist.
From the text: as §1
Cells were seeded into black-walled, clear-bottom, 96-well plates at a density of 80000 cell/well, in RPMI (without Phenol Red, without L-glutamine; Gibco LifeTechnologies, CA) supplemented with 10% dialyzed FBS. Following 18-h incubation with tetracycline, the cells were loaded with […] Ca^2+-sensitive fluorescent dye Fluo-4/AM (Molecular Probes) in Hanks' balanced saline solution (HBSS, Gibco LifeTechnologies, CA) with […] Hepes (Sigma) and 2.5 mM probenecid (Sigma), for 1 h at 37° C. The cells were washed three times with HBSS to remove extracellular dye. Fluorescence signals were measured by using the fluorescence microplate reader Flexstation III (Molecular Devices) at sampling intervals of 1.5 s for 60 s.
The antagonist potency was determined using the EC80 of the quisqualate used as agonist and the potentiation of mGlu5 activation was determined using the EC20 of the agonist (quisqualate or glutamate). The compounds were applied 10 minutes before the application of the agonist.
The negative allosteric modulator activity (expressed as IC50) and the positive allosteric modulator activity (expressed as EC50) of the compounds of the invention for the mGlu5 receptors is between 0.1 and 1000 nM.
as §2

Another assay relates to conscious rats. Description: Effect on cystometry in conscious rats. Format: in vivo, rat. Particulars: Minimal Effective Dose that induces statistically significant increase of bladder volume capacity. The protocol:
Male Sprague-Dawley rats [Crl:CD(SD) IGS BR] of 300-400 g b.w. supplied by Charles River Italia were used. The animals were housed with free access to food and water and maintained on a forced 12-hour-light/12-hour-dark cycle at 22-24° C. of temperature, except during the experiment. To quantify urodynamic parameters in conscious rats, cystometrographic studies were performed according to the procedure previously reported (Guarneri et al., Pharmacol. Res. Vol. 24, No. 2, pp. 175-187, 1991).
Briefly, the rats were anaesthetized by intraperitoneal administration of 3 ml/kg of Equithensin solution (pentobarbital 30 mg/kg and chloral hydrate 125 mg/kg) and placed in a supine position. An approximately 10 mm long midline incision was made in the shaved and cleaned abdominal wall. The urinary bladder was gently freed from adhering tissues, emptied and then cannulated via an incision in the bladder body, using a polyethylene cannula (0.58 mm internal diameter, 0.96 mm external diameter) which was permanently sutured with silk thread. […]
On the day of the experiment, the rats were placed in modified Bollman cages, i.e., restraining cages that were large enough to permit the rats to adopt a normal crouched posture, but narrow enough to prevent turning around. […] The intraluminal-pressure signal during infusion of saline into the bladder (cystometrogram) was continuously recorded on a polygraph (Rectigraph-8K San-ei with BM614/2 amplifier from Biomedica Mangoni) or stored on PC by data acquisition system (PowerLab, Chart 4 software, AD Instruments). From the cystometrogram, bladder volume capacity (BVC) was evaluated. […] Basal BVC value was evaluated as the mean of the values observed in the cystometrograms recorded in an initial period of 30-60 minutes. […] The bladder infusion restarted and changes in BVC were evaluated from the mean values obtained in the cystometrograms observed during 1, 2, and 3 hours after treatment. […]
Each experimental group was composed of 4-11 animals. All data were expressed as mean±standard error. […]

For orientation: Ki means the equilibrium dissociation constant of an inhibitor or competing ligand from its target. Broadly, the IC50 is the midpoint of a concentration-inhibition curve.

Sequence of human mGluR5 receptor (P41594 21-1212): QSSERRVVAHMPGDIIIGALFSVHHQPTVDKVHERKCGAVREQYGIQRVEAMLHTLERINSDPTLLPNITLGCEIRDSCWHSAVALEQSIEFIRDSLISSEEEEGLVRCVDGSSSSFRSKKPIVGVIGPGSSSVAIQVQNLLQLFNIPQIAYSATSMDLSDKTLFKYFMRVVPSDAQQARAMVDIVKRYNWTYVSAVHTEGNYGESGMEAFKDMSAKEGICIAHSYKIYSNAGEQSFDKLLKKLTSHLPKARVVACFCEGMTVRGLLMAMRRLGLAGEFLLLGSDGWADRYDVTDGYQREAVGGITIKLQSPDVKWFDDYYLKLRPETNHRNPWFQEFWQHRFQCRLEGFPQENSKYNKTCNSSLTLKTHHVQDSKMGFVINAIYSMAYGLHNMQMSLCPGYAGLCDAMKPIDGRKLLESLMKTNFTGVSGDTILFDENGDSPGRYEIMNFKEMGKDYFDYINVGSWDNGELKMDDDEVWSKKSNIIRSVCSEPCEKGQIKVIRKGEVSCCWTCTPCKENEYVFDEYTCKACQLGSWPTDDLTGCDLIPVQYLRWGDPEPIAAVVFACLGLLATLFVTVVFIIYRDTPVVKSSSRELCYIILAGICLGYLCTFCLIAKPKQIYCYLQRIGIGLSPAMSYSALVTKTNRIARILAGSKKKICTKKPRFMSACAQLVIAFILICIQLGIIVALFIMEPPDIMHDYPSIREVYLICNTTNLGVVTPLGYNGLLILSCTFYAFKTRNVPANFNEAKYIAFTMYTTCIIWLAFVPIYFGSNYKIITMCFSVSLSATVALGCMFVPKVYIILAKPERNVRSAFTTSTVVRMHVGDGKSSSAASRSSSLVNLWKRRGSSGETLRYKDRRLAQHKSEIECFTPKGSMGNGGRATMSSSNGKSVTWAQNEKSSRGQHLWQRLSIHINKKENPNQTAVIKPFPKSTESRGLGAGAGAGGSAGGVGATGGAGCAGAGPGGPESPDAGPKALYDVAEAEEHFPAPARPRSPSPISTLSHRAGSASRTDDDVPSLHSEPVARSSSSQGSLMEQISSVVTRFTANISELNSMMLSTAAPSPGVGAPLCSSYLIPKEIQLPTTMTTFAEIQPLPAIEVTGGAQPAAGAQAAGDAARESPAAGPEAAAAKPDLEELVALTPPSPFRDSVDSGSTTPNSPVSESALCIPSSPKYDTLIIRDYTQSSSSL
Sequence of human mGlu5 receptor (P41594 21-1212): as above

For the compound `CCOC(=O)N1CC/C(=C\C#Cc2cccc(C(F)(F)F)c2)C(C)(C)C1` [Example 22, ethyl (4E)-3,3-dimethyl-4-{3-[3-(trifluoromethyl)phenyl]prop-2-yn-1-ylidene}piperidine-1-carboxylate], the Ki on human mGluR5 receptor is 1.9 nM. The concentration for half-maximal inhibition (IC50) at human mGlu5 receptor came out at 66.3 nM.
With `COC(=O)N1CC/C(=C\C#Cc2cccc(Cl)c2)C(C)(C)C1` [Example 40, methyl (4E)-4-[3-(3-chlorophenyl)prop-2-yn-1-ylidene]-3,3-dimethylpiperidine-1-carboxylate], the ““In vivo” cystometry MED (mg/kg os)” value in the assay on conscious rats stood at 3 mg/kg. Further, on human mGluR5 receptor, the Ki came out at 1.29 nM. In addition, at human mGlu5 receptor, the IC50 stood at 18.2 nM.
As for `CCOC(=O)N1CC/C(=C\C#Cc2cccc(CC#N)c2)C(C)(C)C1` [Example 28, ethyl (4E)-4-{3-[3-(cyanomethyl)phenyl]prop-2-yn-1-ylidene}-3,3-dimethylpiperidine-1-carboxylate], the Ki on human mGluR5 receptor amounted to 2.12 nM. Moreover, at human mGlu5 receptor, the IC50 was 37.2 nM.
On to `CCOC(=O)N1CC/C(=C\C#Cc2cccc(C)n2)C1(C)C` [Example 48, ethyl (3E)-2,2-dimethyl-3-[3-(6-methylpyridin-2-yl)prop-2-yn-1-ylidene]pyrrolidine-1-carboxylate], for which, in the assay on conscious rats, the ““In vivo” cystometry MED (mg/kg os)” value is on record as 1 mg/kg. In addition, on human mGluR5 receptor, the inhibition constant (Ki) came out at 2.44 nM. Moreover, the IC50 at human mGlu5 receptor worked out at 2.02 nM.
With `CCOC(=O)N1CC/C(=C\C#Cc2cc(C#N)ccn2)C(C)(C)C1` [Example 31, ethyl (4E)-4-[3-(4-cyanopyridin-2-yl)prop-2-yn-1-ylidene]-3,3-dimethylpiperidine-1-carboxylate], in the assay on conscious rats, the ““In vivo” cystometry MED (mg/kg os)” value is 1 mg/kg. In addition, the Ki at human mGluR5 receptor amounted to 2.93 nM. Besides, on human mGlu5 receptor, the IC50 worked out at 13.5 nM.
Take `CCOC(=O)N1CC/C(=C\C#Cc2cccc(Cl)c2)C1(C)C` [Example 101, ethyl (3E)-3-[3-(3-chlorophenyl)prop-2-yn-1-ylidene]-2,2-dimethylpyrrolidine-1-carboxylate]: at human mGluR5 receptor, the Ki was determined as 11.2 nM. For the same compound, the IC50 at human mGlu5 receptor amounted to 66.3 nM.
On the same counts, the results for `CCOC(=O)N1CC/C(=C\C#Cc2cccc(C#N)c2)C(C)(C)C1` [Example 27, ethyl (4E)-4-[3-(3-cyanophenyl)prop-2-yn-1-ylidene]-3,3-dimethylpiperidine-1-carboxylate] are 0.64 nM and 8.6 nM.
On the same counts, the results for `CCOC(=O)N1CC/C(=C\C#Cc2cc(F)cc(C#N)c2)C(C)(C)C1` [Example 32, ethyl (4E)-4-[3-(3-cyano-5-fluorophenyl)prop-2-yn-1-ylidene]-3,3-dimethylpiperidine-1-carboxylate] are 16.1 nM and 60 nM.
Regarding `CCOC(=O)N1CC/C(=C\C#Cc2cc(OC)ccn2)C(C)(C)C1` [Example 25, ethyl (4E)-4-[3-(4-methoxypyridin-2-yl)prop-2-yn-1-ylidene]-3,3-dimethylpiperidine-1-carboxylate], at human mGluR5 receptor, the Ki was found to be 28.6 nM. In addition, the IC50 on human mGlu5 receptor came out at 31.8 nM.
Consider `CCOC(=O)N1CC/C(=C\C#Cc2cc(Cl)ccn2)C1(C)C` [Example 91, ethyl (3E)-3-[3-(4-chloropyridin-2-yl)prop-2-yn-1-ylidene]-2,2-dimethylpyrrolidine-1-carboxylate], for which, on human mGluR5 receptor, the Ki is 16.3 nM. Besides, on human mGlu5 receptor, the IC50 was 31.6 nM.
